Molecular target: Proprotein convertase subtilisin/kexin type 9 (Homo sapiens, UniProt Q8NBP7)
Assay: Inhibition of human C-terminal V5 epitope tagged PCSK9 by luciferase reporter assay

IC50	SMILES
4500 nM	COc1ccc(CCC(=O)N(c2nccc3ccccc23)[C@@H]2CCCNC2)cc1
300 nM	O=C(c1ccc(-n2nnc3ccccc32)cc1)N(c1ncccc1Cl)[C@@H]1CCCNC1
300 nM	O=C(c1ccc(-c2cnn3cccnc23)cc1)N(c1ncccc1Cl)[C@@H]1CCCNC1 [US9227956, 2]
